From patent US6602487B1, “Methods and tests for producing and for inhibiting coronary artery vasospasms” (Dimera Incorporated, priority 1997, dated 2003)
Values joined by “and” are separate entries in the source; they are usually repeats but may differ in a detail not shown here. Equal entries are not always repeated.

Legend:
[1] = test system: coronary artery vascular muscle cells (VMC); assay: Subcellular Ca2+ and PKC localization and contraction of coronary VMC stimulated with serotonin plus U46619; format: cell-based, rhesus monkeys; conditions: VMC from treated monkeys, 10 μM serotonin plus 100 nM U46619
Text: Single VMCs from the left anterior descending, circumflex, and right coronary arteries of adult rhesus monkeys were isolated and studied both as freshly dispersed and as primary cultures. The short-term primary cultured cells (never passaged) maintain the characteristics of the source tissue for 2 3 weeks, including contraction, relaxation, receptors, and membrane electrical properties. VMCs were dissociated with collagenase and protease enzymes in a potassium glutamate solution (KG) that prevent loading with Na^+, Ca^2+, or Cl^− and results in a high proportion of viable, contracting cells (Self, D. A., et al., J. Vasc. Res. 31:359-366 (1994); Rusch., N. J., et al., Physiology and Pathophysiology of the Heart, 999-1010 (1995)). The cells prepared for culture were seeded at low density in cardiovascular culture solution for mammals, fifth generation (CV5M) on glass coverslips to facilitate selection of individual cells. VMC were used for experiments 7-14 days after attaching to coverslips.
Freshly dispersed or primary cultured VMCs on glass coverslips were placed in a chamber of laminar flow design and observed with a Zeiss Plan Neofluar 25×/0.80 water immersion objective. Ionic solution for mammals version 2 (ISM2) was continuously pumped through the chamber (at 1 ml/minute) to provide continuous equilibration and washout of drugs. After a 15 minutes equilibration period, VMC were loaded for 15 minutes at room temperature with 3 μM fluo 3 (Molecular Probes, Inc.) for sensing Ca^2− and for 10 minutes with […] hypericin (LC Laboratories) for reporting PKC. Individual VMC were stimulated by adding 20 μl of 10 μM serotonin plus 100 nM U46619 over the individual cell. After 15 seconds under no-flow conditions, continuous flow of ISM2 was reinstated and a chamber volume of approximately 300 μl was maintained. Fluorescent images were taken at 1, 2, 5, 10, 15, 20 and 30 minutes after stimulation for Ca^2+ and at 3, 4, 9, 16, 21 and 31 minutes for PKC to evaluate subcellular distribution of these signals, and to determine VMC contraction.
ISM2 contains (in mM): 100 NaCl, 4 NaHCO3, 0.5 NaH2PO4, 4.7 KCl, 1.8 CaCl2, 0.41 […], 50 HEPES (pH 7.37), and 5.5 dextrose, KG solution consists of (in mM); 140 K-glutamate, 16 NaHCO3, 0.5 NaH2PO4, 30 HEPES, and 16.5 dextrose at pH 7.3. CVSM consists of. 4.0 mM L-glutamine, 10 μg/ml ciprofloxacin (Miles Pentex/Bayer Corporation), 50 mM HEPES (pH 7.3), and 16 mM NaHCO3 dissolved in 85% MEM-Earle's'salts and 15% horse serum. Phenol red, known to have estrogenic activity, was omitted from all solutions.
As discussed above, the monkeys were implanted with subdermal sylastic tubing containing estrogen (E) progesterone (P) or MPA. The first step in each of the three groups was to implant sylastic tubing containing E. Two weeks later, either P or MPA were additionally implanted and maintained for another 4 weeks (6 weeks total). In the withdrawal (W) group, the E tube was withdrawn, and no tubes were implanted for the last 4 weeks.

[2] = Progesterone serum levels after topical ProGest cream in menopausal or postmenopausal women; format: in vivo, human; conditions: topical ProGest cream 2 ml, per patient
Method: An open label, controlled study was carried out in six healthy menopausal or postmenopausal women using no over-the-counter or prescription medications, medical foods or dietary supplements which would influence progesterone levels. Menopausal or postmenopausal status was determined by clinical methods. The inclusion criteria were low estrogen levels (less than or equal to 25 picograms per ml); non-use of progesterone for two weeks prior to the beginning of the study, and four weeks if medroxyprogesterone acetate was used; a body mass index less than 30; age between 40 and 65; non-smoker; at least six months after menopause (last bleeding); normal mammogram and pap smear within the past year; and reasonable reliability and client compliance. […] The cream was to be applied in 2 ml amounts on calendar days 2-15 at 8 a.m. Applications were increased to a second 2 ml application at 8 p.m. on calendar days 16-30. In addition, estrogen was applied as a […] patch. The patch used was Vivelle®, Ciba (now Novartis), Summit, N.J. The Vivelle® patch (0.05 mg/day) was applied on calendar days 0, 3, 7, 10, 14, 17, 21, 24 and 28.
Estrogen and progesterone serum levels were determined by chemiluminescence and were conducted on calendar days 2, 9, 16, 23, and 30 at times indicated.

[3] = vaginal administration; cited from earlier work

## CC(=O)[C@H]1CC[C@H]2[C@@H]3CCC4=CC(=O)CC[C@]4(C)[C@H]3CC[C@]12C [P, progesterone]
[1]; FIG. 3
  whole cell Ca2+ (fluo 3) fluorescence after stimulation: increased significantly over control only at 1 minute
[1]; FIG. 4
  peripheral-to-central Ca2+ ratio after stimulation: too small to be significant
[1]; FIG. 5
  PKC signal after stimulation: failed to change PKC loci or intensity significantly from control values
[1]; FIG. 6
  peripheral-to-central PKC ratio after stimulation: never significantly different from control
[1]; FIG. 7
  VMC contractions (cell width) after stimulation: significantly different from 0-min controls only at 3 and 4 minutes
[2]; Week 0, 1/2 H
  Progesterone Levels: 1.6 Nanograms/ml
[2]; Week 0, 1 H
  Progesterone Levels: 3.1 Nanograms/ml
[2]; Week 0, 2 H
  Progesterone Levels: 2.8 Nanograms/ml
[2]; Week 0, 3 H
  Progesterone Levels: 3.5 Nanograms/ml
[2]; Week 0, 4 H
  Progesterone Levels: 3.3 Nanograms/ml
[2]; Week 0, 6 H
  Progesterone Levels: 4.6 Nanograms/ml
[2]; Week 0, 12 H
  Progesterone Levels: 2.4 Nanograms/ml
[2]; Week 1, 0 H
  Progesterone Levels: 0.43 Nanograms/ml (2×) and 0.4 Nanograms/ml and 1.5 Nanograms/ml and 1.6 Nanograms/ml and 1.9 Nanograms/ml
[2]; Week 1, 1 H (first of two columns headed 1 H), listed as Progesterone
  Progesterone Levels: 1.0 Nanograms/ml and 1.5 Nanograms/ml and 1.3 Nanograms/ml and 1.6 Nanograms/ml and 2.0 Nanograms/ml
[2]; Week 1, 1 H (second of two columns headed 1 H), listed as Progesterone
  Progesterone Levels: 0.84 Nanograms/ml and 1.0 Nanograms/ml and 1.4 Nanograms/ml and 1.1 Nanograms/ml and 1.3 Nanograms/ml and 2.7 Nanograms/ml
[2]; Week 1, 2 H
  Progesterone Levels: 0.49 Nanograms/ml and 0.82 Nanograms/ml and 0.57 Nanograms/ml and 1.0 Nanograms/ml and 1.2 Nanograms/ml and 1.4 Nanograms/ml
[2]; Week 1, 3 H
  Progesterone Levels: 0.91 Nanograms/ml and 0.94 Nanograms/ml and 1.2 Nanograms/ml and 1.7 Nanograms/ml and 1.6 Nanograms/ml
[2]; Week 1, 4 H
  Progesterone Levels: 0.96 Nanograms/ml and 1.0 Nanograms/ml and 1.1 Nanograms/ml (2×) and 1.3 Nanograms/ml and 2.3 Nanograms/ml
[2]; Week 1, 6 H
  Progesterone Levels: 0.98 Nanograms/ml and 1.3 Nanograms/ml (2×) and 2.0 Nanograms/ml and 1.6 Nanograms/ml (2×)
[2]; Week 1, 12 H
  Progesterone Levels: 0.87 Nanograms/ml and 0.96 Nanograms/ml and 1.3 Nanograms/ml and 1.6 Nanograms/ml and 1.8 Nanograms/ml and 2.0 Nanograms/ml
[2]; Week 2, 0 H
  Progesterone Levels: 0.93 Nanograms/ml and 1.2 Nanograms/ml and 0.96 Nanograms/ml and 2 Nanograms/ml and 1.7 Nanograms/ml and 3.3 Nanograms/ml
[2]; Week 2, 1 H, listed as Progesterone
  Progesterone Levels: 0.82 Nanograms/ml and 0.94 Nanograms/ml and 1.2 Nanograms/ml and 1.3 Nanograms/ml and 14.1 Nanograms/ml and 2.4 Nanograms/ml
[2]; Week 2, 1 H, listed as progesterone
  Progesterone Levels: 14.1 Nanograms/ml
[2]; Week 2, 2 H
  Progesterone Levels: 1 Nanograms/ml and 0.81 Nanograms/ml and 1.2 Nanograms/ml and 1.7 Nanograms/ml and 3.3 Nanograms/ml and 2.9 Nanograms/ml
[2]; Week 2, 4 H
  Progesterone Levels: 1.1 Nanograms/ml and 1.5 Nanograms/ml and 1.2 Nanograms/ml and 2.4 Nanograms/ml and 5 Nanograms/ml and 1.8 Nanograms/ml
[2]; Week 2, 6 H
  Progesterone Levels: 1 Nanograms/ml and 1.3 Nanograms/ml and 1.2 Nanograms/ml and 1.5 Nanograms/ml and 3.2 Nanograms/ml and 2.9 Nanograms/ml
[2]; Week 2, 8 H
  Progesterone Levels: 0.94 Nanograms/ml and 0.83 Nanograms/ml and 1.2 Nanograms/ml and 1.1 Nanograms/ml and 3 Nanograms/ml and 2.2 Nanograms/ml
[2]; Week 2, 12 H
  Progesterone Levels: 0.84 Nanograms/ml and 0.94 Nanograms/ml and 1.2 Nanograms/ml and 2.8 Nanograms/ml and 3.1 Nanograms/ml
[2]; Week 2, 24 H
  Progesterone Levels: 0.81 Nanograms/ml and 2 Nanograms/ml and 1.1 Nanograms/ml and 0.98 Nanograms/ml and 2.1 Nanograms/ml
[2]; female, human, topical, Week 1, 1 H
  concentration at 1 h: 1 ng/mL
[2]; female, human, topical, Week 1, 3 H
  concentration: 1 ng/mL
[3]
  local concentration of progesterone in the endometrial tissue: ~7 nanograms/ml
